# Test results: ChEMBL document CHEMBL3627608, “Crystal structures of human RIP2 kinase catalytic domain complexed with ATP-competitive inhibitors: Foundations for understanding inhibitor selectivity” (Bioorg Med Chem, 2015)
# Experiments:
# [1] = molecular target: T1, Serine/threonine-protein kinase DCLK1 (Homo sapiens) (UniProt O15075); experiment: Inhibition of DCAMKL1 (unknown origin) at 10 uM after 120 mins P33 radiolabeled kinase activity assay
# T1 sequence (whole entry): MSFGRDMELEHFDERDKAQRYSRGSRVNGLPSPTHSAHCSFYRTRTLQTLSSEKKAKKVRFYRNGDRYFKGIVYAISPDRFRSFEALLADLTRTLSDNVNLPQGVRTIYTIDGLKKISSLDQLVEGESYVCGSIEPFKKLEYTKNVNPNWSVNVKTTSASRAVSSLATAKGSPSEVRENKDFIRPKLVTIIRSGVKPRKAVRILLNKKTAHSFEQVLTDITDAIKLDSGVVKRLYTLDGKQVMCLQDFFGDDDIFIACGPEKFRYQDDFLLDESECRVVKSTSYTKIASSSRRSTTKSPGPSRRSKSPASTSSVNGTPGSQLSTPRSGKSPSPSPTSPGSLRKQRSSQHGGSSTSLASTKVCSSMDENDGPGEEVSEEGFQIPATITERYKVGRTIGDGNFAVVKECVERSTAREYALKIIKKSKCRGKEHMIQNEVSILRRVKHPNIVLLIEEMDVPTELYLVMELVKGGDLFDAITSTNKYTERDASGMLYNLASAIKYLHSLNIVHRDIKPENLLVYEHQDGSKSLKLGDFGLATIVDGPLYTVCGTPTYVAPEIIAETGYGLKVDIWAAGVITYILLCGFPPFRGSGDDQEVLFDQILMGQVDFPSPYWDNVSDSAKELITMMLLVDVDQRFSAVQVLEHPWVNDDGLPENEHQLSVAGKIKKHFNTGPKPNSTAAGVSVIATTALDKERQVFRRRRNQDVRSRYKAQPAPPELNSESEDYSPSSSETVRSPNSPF
# [2] = molecular target: PAS domain-containing serine/threonine-protein kinase (Homo sapiens) (UniProt Q96RG2); experiment: Inhibition of PASK (unknown origin) at 10 uM after 120 mins P33 radiolabeled kinase activity assay
# [3] = molecular target: T2, Testis-specific serine/threonine-protein kinase 1 (Homo sapiens) (UniProt Q9BXA7); experiment: Inhibition of STK22D (unknown origin) at 10 uM after 120 mins P33 radiolabeled kinase activity assay
# T2 sequence (whole entry): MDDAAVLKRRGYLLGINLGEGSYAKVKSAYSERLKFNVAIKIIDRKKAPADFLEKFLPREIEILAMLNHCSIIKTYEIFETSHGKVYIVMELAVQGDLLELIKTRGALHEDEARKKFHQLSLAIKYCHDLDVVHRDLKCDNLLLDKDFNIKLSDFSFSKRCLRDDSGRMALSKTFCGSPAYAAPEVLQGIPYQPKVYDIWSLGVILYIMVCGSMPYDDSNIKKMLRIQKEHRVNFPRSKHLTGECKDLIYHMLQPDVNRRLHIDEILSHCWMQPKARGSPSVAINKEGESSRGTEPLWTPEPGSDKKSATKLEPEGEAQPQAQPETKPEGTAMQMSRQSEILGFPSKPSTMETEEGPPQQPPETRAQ
# [4] = molecular target: Mitogen-activated protein kinase kinase kinase 12 (Homo sapiens) (UniProt Q12852); experiment: Inhibition of DLK (unknown origin) at 10 uM after 120 mins P33 radiolabeled kinase activity assay
# [5] = molecular target: Ribosomal protein S6 kinase alpha-5 (Homo sapiens) (UniProt O75582); experiment: Inhibition of MSK1 (unknown origin) at 10 uM after 120 mins P33 radiolabeled kinase activity assay
# [6] = molecular target: Tyrosine-protein kinase Blk (Homo sapiens) (UniProt P51451); experiment: Inhibition of BLK (unknown origin) at 10 uM after 120 mins P33 radiolabeled kinase activity assay
# [7] = molecular target: ALK tyrosine kinase receptor (Homo sapiens) (UniProt Q9UM73); experiment: Inhibition of ALK (unknown origin) at 10 uM after 120 mins P33 radiolabeled kinase activity assay
# [8] = molecular target: TRAF2 and NCK-interacting protein kinase (Homo sapiens) (UniProt Q9UKE5); experiment: Inhibition of TNIK (unknown origin) at 10 uM after 120 mins P33 radiolabeled kinase activity assay
# [9] = molecular target: T3, Serine/threonine-protein kinase Nek1 (Homo sapiens) (UniProt Q96PY6); experiment: Inhibition of NEK1 (unknown origin) at 10 uM after 120 mins P33 radiolabeled kinase activity assay
# T3 sequence (whole entry): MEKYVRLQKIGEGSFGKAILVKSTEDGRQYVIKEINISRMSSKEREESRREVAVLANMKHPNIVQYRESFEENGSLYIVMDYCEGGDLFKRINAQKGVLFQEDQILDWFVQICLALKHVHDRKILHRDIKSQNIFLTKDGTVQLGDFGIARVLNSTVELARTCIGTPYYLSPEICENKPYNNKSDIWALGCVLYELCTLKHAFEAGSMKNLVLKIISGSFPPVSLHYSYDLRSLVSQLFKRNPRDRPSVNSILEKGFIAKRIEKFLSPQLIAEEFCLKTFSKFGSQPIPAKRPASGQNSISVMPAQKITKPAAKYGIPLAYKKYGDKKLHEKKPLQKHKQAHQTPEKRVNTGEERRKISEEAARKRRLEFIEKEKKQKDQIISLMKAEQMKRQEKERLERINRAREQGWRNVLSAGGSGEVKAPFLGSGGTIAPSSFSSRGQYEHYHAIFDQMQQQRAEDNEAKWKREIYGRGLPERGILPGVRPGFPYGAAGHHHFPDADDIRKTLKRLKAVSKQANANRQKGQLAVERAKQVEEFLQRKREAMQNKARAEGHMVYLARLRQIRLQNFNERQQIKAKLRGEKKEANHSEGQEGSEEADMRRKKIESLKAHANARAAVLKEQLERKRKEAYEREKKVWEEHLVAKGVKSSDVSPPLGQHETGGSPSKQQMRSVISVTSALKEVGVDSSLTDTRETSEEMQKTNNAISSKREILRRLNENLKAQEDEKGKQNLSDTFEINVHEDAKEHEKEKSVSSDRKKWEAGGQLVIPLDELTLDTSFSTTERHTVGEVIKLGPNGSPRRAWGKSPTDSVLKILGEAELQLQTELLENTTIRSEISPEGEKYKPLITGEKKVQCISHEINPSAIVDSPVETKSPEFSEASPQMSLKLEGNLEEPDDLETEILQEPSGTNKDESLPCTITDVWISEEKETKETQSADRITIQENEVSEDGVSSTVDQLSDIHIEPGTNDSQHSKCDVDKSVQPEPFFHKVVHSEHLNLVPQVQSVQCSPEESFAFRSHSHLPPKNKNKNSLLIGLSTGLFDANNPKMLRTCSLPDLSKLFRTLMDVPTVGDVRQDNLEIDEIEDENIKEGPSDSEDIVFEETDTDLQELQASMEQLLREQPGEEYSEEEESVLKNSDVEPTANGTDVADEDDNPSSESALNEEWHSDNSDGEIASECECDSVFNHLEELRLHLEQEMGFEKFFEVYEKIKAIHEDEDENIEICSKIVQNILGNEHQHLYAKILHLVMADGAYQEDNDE
# [10] = molecular target: Serine/threonine-protein kinase 32C (Homo sapiens) (UniProt Q86UX6); experiment: Inhibition of STK32C (unknown origin) at 10 uM after 120 mins P33 radiolabeled kinase activity assay
# Serine/threonine-protein kinase 32C (Homo sapiens), sequence (Q86UX6 whole entry): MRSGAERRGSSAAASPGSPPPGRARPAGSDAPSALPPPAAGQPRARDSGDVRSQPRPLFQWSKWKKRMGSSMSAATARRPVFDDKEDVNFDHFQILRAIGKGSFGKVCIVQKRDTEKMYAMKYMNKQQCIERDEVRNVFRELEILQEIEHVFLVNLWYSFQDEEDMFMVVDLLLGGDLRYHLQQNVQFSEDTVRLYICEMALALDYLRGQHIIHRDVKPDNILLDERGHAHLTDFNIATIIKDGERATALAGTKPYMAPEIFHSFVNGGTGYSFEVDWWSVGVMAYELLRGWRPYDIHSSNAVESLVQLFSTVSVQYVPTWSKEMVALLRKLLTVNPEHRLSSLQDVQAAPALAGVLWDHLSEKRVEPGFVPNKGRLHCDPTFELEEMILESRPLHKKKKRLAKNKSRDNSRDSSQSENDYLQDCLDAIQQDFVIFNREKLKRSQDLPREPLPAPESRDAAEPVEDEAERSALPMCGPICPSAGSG
# Mitogen-activated protein kinase kinase kinase 12 (Homo sapiens), sequence (Q12852 whole entry, looked up): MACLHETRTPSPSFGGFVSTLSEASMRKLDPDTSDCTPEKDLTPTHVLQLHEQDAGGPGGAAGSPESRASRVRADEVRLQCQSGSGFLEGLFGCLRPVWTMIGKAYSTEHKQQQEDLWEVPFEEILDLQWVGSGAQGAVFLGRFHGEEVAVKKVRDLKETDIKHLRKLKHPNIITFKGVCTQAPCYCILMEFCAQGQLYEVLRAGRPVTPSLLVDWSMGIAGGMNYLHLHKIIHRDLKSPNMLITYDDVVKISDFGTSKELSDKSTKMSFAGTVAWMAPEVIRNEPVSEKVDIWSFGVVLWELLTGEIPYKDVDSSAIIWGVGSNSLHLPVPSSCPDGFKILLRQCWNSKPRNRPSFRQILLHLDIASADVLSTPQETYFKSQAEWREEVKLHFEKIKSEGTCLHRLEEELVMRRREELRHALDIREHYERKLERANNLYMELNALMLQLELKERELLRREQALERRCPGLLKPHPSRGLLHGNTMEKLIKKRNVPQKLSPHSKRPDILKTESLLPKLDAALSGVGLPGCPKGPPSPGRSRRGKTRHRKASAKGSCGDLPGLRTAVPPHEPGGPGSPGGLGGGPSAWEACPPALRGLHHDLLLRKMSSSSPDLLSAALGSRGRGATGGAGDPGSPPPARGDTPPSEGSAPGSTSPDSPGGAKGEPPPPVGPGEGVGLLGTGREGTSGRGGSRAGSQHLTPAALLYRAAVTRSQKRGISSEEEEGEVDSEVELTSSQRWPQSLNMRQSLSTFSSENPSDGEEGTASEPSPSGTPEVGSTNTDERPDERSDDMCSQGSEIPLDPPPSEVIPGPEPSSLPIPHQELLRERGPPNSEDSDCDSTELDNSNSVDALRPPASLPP
# ALK tyrosine kinase receptor (Homo sapiens), sequence (Q9UM73 19-1620 limits assumed): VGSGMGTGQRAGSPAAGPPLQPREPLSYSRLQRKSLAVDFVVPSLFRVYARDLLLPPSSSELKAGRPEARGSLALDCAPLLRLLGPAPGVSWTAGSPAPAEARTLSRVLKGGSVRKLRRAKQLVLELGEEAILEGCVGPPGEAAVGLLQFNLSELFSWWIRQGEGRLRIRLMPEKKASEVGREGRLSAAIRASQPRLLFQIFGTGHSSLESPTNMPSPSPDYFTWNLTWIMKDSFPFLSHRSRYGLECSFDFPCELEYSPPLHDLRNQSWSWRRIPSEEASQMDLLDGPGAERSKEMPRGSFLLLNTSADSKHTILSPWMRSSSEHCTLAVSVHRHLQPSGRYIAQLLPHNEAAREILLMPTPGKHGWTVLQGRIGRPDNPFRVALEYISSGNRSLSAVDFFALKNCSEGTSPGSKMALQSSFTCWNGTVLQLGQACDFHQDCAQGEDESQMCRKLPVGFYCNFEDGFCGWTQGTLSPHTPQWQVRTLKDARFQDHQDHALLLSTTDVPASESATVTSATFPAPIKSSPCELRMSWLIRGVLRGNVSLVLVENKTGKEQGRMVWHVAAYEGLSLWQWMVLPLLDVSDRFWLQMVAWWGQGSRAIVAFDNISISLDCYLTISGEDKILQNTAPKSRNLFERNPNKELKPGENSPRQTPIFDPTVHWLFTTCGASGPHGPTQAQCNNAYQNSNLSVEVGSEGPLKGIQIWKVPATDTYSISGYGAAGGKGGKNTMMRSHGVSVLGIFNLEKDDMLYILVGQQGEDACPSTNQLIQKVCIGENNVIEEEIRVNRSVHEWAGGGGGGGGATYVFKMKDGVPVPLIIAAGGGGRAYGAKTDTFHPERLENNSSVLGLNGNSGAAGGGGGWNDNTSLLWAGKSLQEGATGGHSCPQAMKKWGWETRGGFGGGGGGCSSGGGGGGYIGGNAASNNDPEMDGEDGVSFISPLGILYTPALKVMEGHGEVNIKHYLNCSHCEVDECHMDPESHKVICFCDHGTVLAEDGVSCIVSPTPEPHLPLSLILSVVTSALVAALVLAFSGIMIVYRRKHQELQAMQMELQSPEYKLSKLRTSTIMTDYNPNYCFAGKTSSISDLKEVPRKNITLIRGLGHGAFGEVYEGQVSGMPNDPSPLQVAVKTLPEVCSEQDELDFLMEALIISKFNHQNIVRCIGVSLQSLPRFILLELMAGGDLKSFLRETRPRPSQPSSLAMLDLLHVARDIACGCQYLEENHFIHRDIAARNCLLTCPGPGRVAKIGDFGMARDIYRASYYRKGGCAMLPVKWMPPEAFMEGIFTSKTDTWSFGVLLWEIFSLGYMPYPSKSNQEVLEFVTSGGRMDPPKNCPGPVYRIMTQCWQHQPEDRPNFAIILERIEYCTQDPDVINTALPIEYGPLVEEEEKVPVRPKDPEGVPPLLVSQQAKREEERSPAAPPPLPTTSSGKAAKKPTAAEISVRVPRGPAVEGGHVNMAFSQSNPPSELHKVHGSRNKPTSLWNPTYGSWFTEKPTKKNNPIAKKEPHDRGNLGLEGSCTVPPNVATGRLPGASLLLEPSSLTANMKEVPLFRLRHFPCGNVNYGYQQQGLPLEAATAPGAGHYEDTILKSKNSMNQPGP
# PAS domain-containing serine/threonine-protein kinase (Homo sapiens), sequence (Q96RG2 whole entry, the tested form may be a part): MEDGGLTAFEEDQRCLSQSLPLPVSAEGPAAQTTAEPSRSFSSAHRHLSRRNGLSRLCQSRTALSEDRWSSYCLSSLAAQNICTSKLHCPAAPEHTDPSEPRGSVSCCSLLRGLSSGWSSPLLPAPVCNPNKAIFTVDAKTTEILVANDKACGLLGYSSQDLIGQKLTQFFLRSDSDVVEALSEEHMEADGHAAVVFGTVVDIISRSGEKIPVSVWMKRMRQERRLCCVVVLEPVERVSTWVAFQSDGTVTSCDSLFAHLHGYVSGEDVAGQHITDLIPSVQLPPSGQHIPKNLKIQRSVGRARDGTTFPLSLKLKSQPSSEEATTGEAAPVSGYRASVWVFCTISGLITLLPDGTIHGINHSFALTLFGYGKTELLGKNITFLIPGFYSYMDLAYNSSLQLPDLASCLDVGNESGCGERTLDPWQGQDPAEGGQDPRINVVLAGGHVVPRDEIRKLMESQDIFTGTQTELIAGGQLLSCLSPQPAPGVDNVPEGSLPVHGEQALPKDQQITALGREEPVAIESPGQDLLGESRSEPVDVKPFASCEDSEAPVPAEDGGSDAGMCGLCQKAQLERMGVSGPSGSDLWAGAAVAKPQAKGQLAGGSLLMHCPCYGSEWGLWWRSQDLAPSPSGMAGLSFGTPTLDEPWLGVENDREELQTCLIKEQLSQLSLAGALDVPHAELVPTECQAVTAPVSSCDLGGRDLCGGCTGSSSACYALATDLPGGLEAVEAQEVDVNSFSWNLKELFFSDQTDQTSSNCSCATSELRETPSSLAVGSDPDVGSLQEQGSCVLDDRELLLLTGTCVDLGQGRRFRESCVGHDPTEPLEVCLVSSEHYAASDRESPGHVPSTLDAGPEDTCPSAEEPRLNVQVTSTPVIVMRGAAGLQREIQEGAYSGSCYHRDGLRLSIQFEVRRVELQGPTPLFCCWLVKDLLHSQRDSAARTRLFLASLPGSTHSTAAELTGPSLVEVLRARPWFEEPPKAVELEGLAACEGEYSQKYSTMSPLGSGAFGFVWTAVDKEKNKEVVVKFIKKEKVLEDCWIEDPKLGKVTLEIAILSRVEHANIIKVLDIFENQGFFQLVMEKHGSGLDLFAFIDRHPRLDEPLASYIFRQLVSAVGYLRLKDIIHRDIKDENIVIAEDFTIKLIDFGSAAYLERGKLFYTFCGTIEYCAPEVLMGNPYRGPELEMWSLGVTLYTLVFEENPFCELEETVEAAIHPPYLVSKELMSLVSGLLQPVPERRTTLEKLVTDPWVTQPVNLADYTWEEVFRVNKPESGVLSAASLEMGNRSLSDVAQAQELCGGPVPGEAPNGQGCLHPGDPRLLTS
# Ribosomal protein S6 kinase alpha-5 (Homo sapiens), sequence (O75582 whole entry, looked up): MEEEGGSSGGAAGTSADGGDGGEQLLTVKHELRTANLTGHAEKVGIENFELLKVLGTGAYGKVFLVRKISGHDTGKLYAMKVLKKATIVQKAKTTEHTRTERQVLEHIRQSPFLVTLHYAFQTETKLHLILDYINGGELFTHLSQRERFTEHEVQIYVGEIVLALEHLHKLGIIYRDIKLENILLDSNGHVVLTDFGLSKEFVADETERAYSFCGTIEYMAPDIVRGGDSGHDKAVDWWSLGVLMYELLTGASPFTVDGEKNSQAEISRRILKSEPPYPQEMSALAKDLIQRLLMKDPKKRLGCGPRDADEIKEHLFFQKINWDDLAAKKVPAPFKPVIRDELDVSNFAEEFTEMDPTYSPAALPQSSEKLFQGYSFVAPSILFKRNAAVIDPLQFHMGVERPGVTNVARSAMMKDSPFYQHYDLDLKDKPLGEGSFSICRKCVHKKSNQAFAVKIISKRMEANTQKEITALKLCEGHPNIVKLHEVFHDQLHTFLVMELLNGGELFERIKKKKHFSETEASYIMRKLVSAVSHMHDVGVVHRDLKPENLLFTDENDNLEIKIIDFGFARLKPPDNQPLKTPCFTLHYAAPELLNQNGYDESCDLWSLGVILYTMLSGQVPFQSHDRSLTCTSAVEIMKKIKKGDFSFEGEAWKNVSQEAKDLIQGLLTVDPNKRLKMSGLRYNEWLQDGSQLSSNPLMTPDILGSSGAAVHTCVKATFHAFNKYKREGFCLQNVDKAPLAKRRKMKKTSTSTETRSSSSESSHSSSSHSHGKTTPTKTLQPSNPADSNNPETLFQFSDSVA
inhibition [1] [%],inhibition [2] [%],inhibition [3] [%],inhibition [4] [%],inhibition [5] [%],inhibition [6] [%],inhibition [7] [%],inhibition [8] [%],inhibition [9] [%],inhibition [10] [%],SMILES
8.06,-0.14,13.6,53,5.17,99.4,6.1,82.6,15.4,8.37,CS(=O)(=O)c1cccc(Nc2nccc(-c3sc(N4CCOCC4)nc3-c3cccc(NS(=O)(=O)c4c(F)cccc4F)c3)n2)c1
4.11,-2.42,7.17,5.39,7.07,34.2,0.02,48.4,2.5,13,COCCNC(=O)c1ccc2c(c1)nc(-c1cnc(-c3ccc(Cl)cc3)[nH]1)n2CCOC
2.97,10.9,7.33,8.04,49.5,65.8,17.4,93.9,12.5,12.9,CC(C)(C)c1cc(NC(=O)Nc2ccc(Oc3ccncc3)cc2)no1
